Patent US4816393A, “Nucleoside triphosphate-dependent 1-methylhydantoinase, a process for obtaining it and the use thereof” (Boehringer Mannheim GmbH, priority 1984, dated 1989)
Read-outs that look alike come from different tables or passages of the source.

Key:
1-methylhydantoinase [1] = test: Nucleotide specificity of 1-methylhydantoinase (via carbamoylsarcosinamidohydrolase + sarcosine oxidase); format: biochemical, Arthrobacter species DSM 2563; conditions: nucleotide 4 mmol/liter
Description: Relative activity in % (ATP=100) determined via the reaction sequence catalyzed by carbamoylsarcosinamidohydrolase+sarcosine oxidase:
(§1) The activity determination was carried out as follows: […]
(§2) 2. 1-Methylhydantoin solution: 10 mmol/liter
(§3) Wavelength 546 mn; T=25° C.; light path 1 cm.; final volume 2.03 ml.; extinction coefficient of the dye formed=13 cm^2 /μmol. […]
(§4) ^++ For the investigation according to Points 2, 3b, 4, 5 and 6 given
(§5) 4. Calculation: [formula] Remark: ΔA/min. must not to be more than 0.66; otherwise dilute sample. Lag phase about 5 minutes.

1-methylhydantoinase [2] = test: Activators of 1-methylhydantoinase; format: biochemical, Arthrobacter species DSM 2563
Description: Relative activity in % (30 mmol/liter ammonium sulphate (AS)=100)
as §1, §2, §3, §4, §5

1-methylhydantoinase [3] = test: Enzymatic colour test for the determination of creatinine; format: biochemical
Source text: 1. Enzymatic colour tetst for the determination of 1-methylhydantoin (1-methylhydantoinase/N-carbamoylsarcosinamidohydrolase/sarcosine oxidase reaction with peroxidase/4-aminoantipyrine/2,4,6-tribromo-3-hydroxybenzoicacid colour indicator system) […]
Corresponding to reagent 1.1. of Example 5, however with the addition of creatinine iminohydrolase, 2 U/ml. (final concentration).
Corresponding to Point 1.2 of Example 5 but, as sample, there are used aqueous creatinine solutions (0.0877 to 1.754 mmol/liter) and the incubation period for P and RL is prolonged to 20 minutes.

1-methylhydantoinase [4] = test: Metal ion dependence of 1-methylhydantoinase activity; format: biochemical, Arthrobacter species DSM 2563
Description: Relative activity in % (5 mmol/liter magnesium chloride=100)
as §1
2. 1-Methylhydantoin solution: 10 mmol/liter […]
as §4, §5

1-methylhydantoinase [5] = test: Michaelis constants of 1-methylhydantoinase; format: biochemical, Arthrobacter species DSM 2563; conditions: pH 7.8
1-methylhydantoinase [6] = test: Inhibitors of 1-methylhydantoinase; format: biochemical, Arthrobacter species DSM 2563; conditions: for relative activity %: 7.5 mM Mg++ in the reaction mixture
Description: as §1, §2, §3, §4, §5

[7] = activator substance 30 mmol/liter

Na hexametaphosphate
Relative activity in % (ATP=100) (1-methylhydantoinase [1]): 0%

O=S(=O)([O-])[O-].[Na+].[Na+] [Na2 SO4]
Relative activity in % (30 mmol/liter ammonium sulphate (AS)=100) (1-methylhydantoinase [2]; [7]): 39%

CN1CC(=O)NC1=N [creatinine]
colour reaction (1-methylhydantoinase [3]; creatinine iminohydrolase omitted from Reagent 8.1): no colour reaction

N.N.O=S(=O)(O)O [(NH4)2 SO4, ammonium sulphate]
Relative activity in % (30 mmol/liter ammonium sulphate (AS)=100) (1-methylhydantoinase [2]; [7]): 100% | Relative activity in % (30 mmol/liter ammonium sulphate (AS)=100) (1-methylhydantoinase [2]; activator substance 10 mol/liter): 95%

O=S(=O)([O-])[O-].[Li+].[Li+] [Li2 SO4]
Relative activity in % (30 mmol/liter ammonium sulphate (AS)=100) (1-methylhydantoinase [2]; [7]): 40%

O=P([O-])([O-])OP(=O)([O-])OP(=O)([O-])[O-].[Na+].[Na+].[Na+].[Na+].[Na+] [Na tripolyphosphate]
Relative activity in % (ATP=100) (1-methylhydantoinase [1]): 0%

[Cl-].[Cl-].[Mg+2] [MgCl2, magnesium chloride]
Relative activity in % (5 mmol/liter magnesium chloride=100) (1-methylhydantoinase [4]; metal salt 1 mmol/liter): 83% | Relative activity in % (5 mmol/liter magnesium chloride=100) (1-methylhydantoinase [4]; metal salt 5 mmol/liter): 100% | Relative activity in % (5 mmol/liter magnesium chloride=100) (1-methylhydantoinase [4]; metal salt 10 mmol/liter): 98%

CN1CC(=O)NC1=O [1-methylhydantoin]
Km (1-methylhydantoinase [5]; 0.15 mol/liter TES, via ATP, read-out: Km 1-methylhydantoin): 20 µM

Nc1ccn([C@@H]2O[C@H](COP(=O)(O)OP(=O)(O)OP(=O)(O)O)[C@@H](O)[C@H]2O)c(=O)n1 [CTP]
Relative activity in % (ATP=100) (1-methylhydantoinase [1]): 1.5%

O=c1ccn([C@@H]2O[C@H](COP(=O)(O)OP(=O)(O)OP(=O)(O)O)[C@@H](O)[C@H]2O)c(=O)[nH]1 [UTP]
Relative activity in % (ATP=100) (1-methylhydantoinase [1]): 0%

Nc1ncnc2c1ncn2[C@@H]1O[C@H](COP(=O)(O)O)[C@@H](O)[C@H]1O [AMP]
Relative activity in % (ATP=100) (1-methylhydantoinase [1]): 0%

Nc1ncnc2c1ncn2[C@@H]1O[C@H](COP(=O)(O)OP(=O)(O)OP(=O)(O)O)[C@@H](O)[C@H]1O [ATP, adenosine-5'-triphosphate]
Km (1-methylhydantoinase [5]; TES 0.15 mol/liter, via sarcosine, read-out: Km ATP): 800 µM | Relative activity in % (ATP=100) (1-methylhydantoinase [1]): 100%

Nc1ncnc2c1ncn2[C@@H]1O[C@H](COP(=O)(O)OP(=O)(O)O)[C@@H](O)[C@H]1O [ADP]
Relative activity in % (ATP=100) (1-methylhydantoinase [1]): 1%

O=S(=O)([O-])[O-].[K+].[K+] [K2 SO4]
Relative activity in % (30 mmol/liter ammonium sulphate (AS)=100) (1-methylhydantoinase [2]; [7]): 59%

Nc1nc2c(ncn2[C@@H]2O[C@H](COP(=O)(O)OP(=O)(O)OP(=O)(O)O)[C@@H](O)[C@H]2O)c(=O)[nH]1 [GTP]
Relative activity in % (ATP=100) (1-methylhydantoinase [1]): 7%

[Cl][Mn][Cl] [MnCl2]
Relative activity in % (5 mmol/liter magnesium chloride=100) (1-methylhydantoinase [4]; metal salt 5 mmol/liter): 60%

O=C(O)O [NaHCO3]
Relative activity in % (30 mmol/liter ammonium sulphate (AS)=100) (1-methylhydantoinase [2]; [7]): 40%

[F-].[Na+] [NaF]
Inhibition (in words) (1-methylhydantoinase [6]): Significant inhibition | inhibition (1-methylhydantoinase [6]; 1×10^-2 mol/liter): 100%

[Cl-].[Cl-].[Zn+2] [ZnCl2]
Relative activity in % (5 mmol/liter magnesium chloride=100) (1-methylhydantoinase [4]; metal salt 5 mmol/liter): 24%

[Cl-].[Na+] [NaCl]
Relative activity in % (30 mmol/liter ammonium sulphate (AS)=100) (1-methylhydantoinase [2]; [7]): 41%

N [NH4^+]
Activation (in words) (1-methylhydantoinase [2]): Significant activation

O=P(O)(O)OP(=O)(O)O [PPi, pyrophosphate]
Relative activity in % (ATP=100) (1-methylhydantoinase [1]): 0%

Cl.N [NH4 Cl, ammonium chloride]
Relative activity in % (30 mmol/liter ammonium sulphate (AS)=100) (1-methylhydantoinase [2]; [7]): 91%

CN(CC(=O)O)C(=N)N [creatine]
colour reaction (1-methylhydantoinase [3]; creatine solution (884 μmol/liter) as sample instead of creatinine, test batch 8.2): no colour reaction

O=C(O)CN(CCN(CC(=O)O)CC(=O)O)CC(=O)O [EDTA]
Inhibition (in words) (1-methylhydantoinase [6]): Significant inhibition | relative activity % (1-methylhydantoinase [6]; EDTA 5 mol/liter (so in the source)): 100% | relative activity % (1-methylhydantoinase [6]; EDTA 10 mol/liter (so in the source)): 42% | relative activity % (1-methylhydantoinase [6]; EDTA 50 mol/liter (so in the source)): 2%

CC(=O)O [NH4 acetate]
Relative activity in % (30 mmol/liter ammonium sulphate (AS)=100) (1-methylhydantoinase [2]; [7]): 98%

Cc1cn([C@H]2C[C@H](O)[C@@H](COP(=O)(O)OP(=O)(O)OP(=O)(O)O)O2)c(=O)[nH]c1=O [TTP]
Relative activity in % (ATP=100) (1-methylhydantoinase [1]): 0%
